From patent US8242282B2, “Histone deacetylase inhibitors” (Taipei Medical University, priority 2010, dated 2012)

Assays:
IMR90 cells = assay: In vitro wound healing activity (scrape wound, cell migration); assay type: cell-based; details: 24 hours, Compound 1 0.1, 0.5, 1 mM, Compound 3 0.05, 0.5, 1 μM
Method: The wound healing activities of Compounds 1 and 3 were in vitro assessed by the method provided in Valster et al., Methods, 2005, 37, 208-215 and Rodriguez et al., “Methods in Molecular Biology” in Cell Migration: Developmental Methods and Protocols, vol. 294, Ed by Guan et al. Humana. Press Inc.
IMR90 cells were seeded on a six-well culture dish and grown in MEM medium with 10% FBS to confluence in the presence of serum. The growth medium (MEM with 10% FBS) was then replaced with a serum-free medium (MEM without FBS). After starved for 24 hours, wounds were made by scraping using a P1000 pipette tip. […] The wounds were observed by a phase contrast microscopy using an inverted microscope. Images were taken at areas flanking the intersections of the wounds and the marker lines at regular intervals over a period of 24 hours. These images were analyzed through a digital imaging system using Image-Pro Plus® (Media Cybernetics, Silver Spring, Md.) to determine the position of the migrating cells at the wound edges. The cell migration distance was calculated by substracting the width of the wound at each interval from its initial width.

5-FU-induced mucositis = assay: In vivo anti-mucositis activity (5-FU, buccal pouch wound); design: species or system Syrian golden hamsters; details: hamster, subcutaneous once a day Day 0 to Day 5; Compound 1 36, 72, 144 mg/kg; Compound 3 0.5, 5.0, 50.0 mg/kg; dose-dependent
Method: Twenty young Syrian golden hamsters, 7 to 8 weeks old weighing 90 to 130 g, were numbered and randomly divided into five groups (4 hamsters each group).
Each hamster in the five groups was punched at the right buccal pouch mucosa with a skin puncher on Day 0 to give a 6 mm diameter wound. Four groups were intraperitoneally administered with 5-FU at 20 mg/kg twice at Day 0 and one group was used as a control without any treatment. […] Wounds were examined macroscopically and microscopically 0.5, 1, 2, 3, 4, 5, and 6 days after the punching. The hematological parameters, serum biochemistry, extents of inflammatory cell infiltration, sizes of hemorrhagic areas, and presence of ulcers and abscesses were recorded. After Day 6, all of the hamsters were anesthetized with isoflurane (2-chloro-2-difluoromethoxy-1,1,1-trifluoro-ethane) for macroscopic and histological analysis and Western blot analysis.

COX-2 = assay: In vitro COX-2 protein expression (Western blot); assay type: cell-based; details: IMR90 cells; 0.05-1.0 μM; dose-dependent
Method: To detect COX-2 protein expression, Western blot analysis was performed as follows. Briefly, Compound 3-treated IMR90 cells, stimulated by wounds (scraping using a P1000 pipette tip) and non-stimulated, were collected and lysed in 1× lysis buffer. Protein concentrations of these lysed cells were measured using Bio-Rad quantification assay (Bio-Rad Laboratory, CA). Protein extracts (20 μg) were subjected to electrophoresis on a 10% SDS-PAGE and transferred to PVDF membrane. The antibody recognizing COX-2 was obtained from Epitomics (Burlingame, Calif.). The antibody recognizing β-actin was from obtained Sigma (St. Louis, Mo.). All antibodies were rabbit polyclonal antibodies except for the β-actin antibody, which was a mouse monoclonal antibody. Secondary antibodies were anti-rabbit IgG and anti-mouse IgG (horseradish-peroxidase linked antibodies), respectively (Amersham Biosciences, Piscataway, N.J.). Primary antibodies were used at a 1:1,000 dilution and secondary antibodies were used at a 1:5,000 dilution in a solution containing 5% BSA in TBS-T. Immunoreactive proteins were detected using the enhanced chemiluminescence light (ECL) detecting kit (Millipore).

[1] = target: histone deacetylase (HDAC); assay: HDAC inhibition assay (Fluor de Lys fluorescent assay, HeLa lysate); assay type: biochemical; details: mantissa in r5, exponent and unit in r6
Method: The histone deacetylase (HDAC) activity was measured in HeLa lysate suspensions using a Fluor de Lys™ fluorescent assay system (Biomol, Enzo Life Sciences; PA, USA) with some modification as described previously (Pflum et al., 2007). In brief, HeLa lysate (1.5 μl) were preincubated in the presence of test compound or vehicle (DMSO, 0.2% v/v) at 30° C. for 10 minutes, therefore Fluor de Lys™ substrate (125 μM) was added and incubated at 37° C. under shaking for 45 minutes. Finally, the developer reagent (95 μl, 1×) was immediately added to the same aliquot of the reaction mixture for another 10 minutes. The extent of deacetylated substrate formation was monitored by a microplate fluorescence reader (Thermo Varioskan Flash, Thermofisher; MA, USA) to determine the fluorescence intensity (excitation at 360 nm, emission at 460 nm). The results were expressed as the percent inhibition of the rate of deacetylated substrate formation on the reacting interval. […] See Bieliauskas et al., Bioorg. Med. Chem. Lett., 2007, 17: 2216-2219.

melting point | IC50 [1] [nM] | SMILES | wound healing (IMR90 cells) | 5-FU-induced mucositis in wound areas (5-FU-induced mucositis) | COX-2 protein expression (COX-2)
 |  | O=C(CCCc1ccccc1)NO [Compound 1, N-hydroxy-4-phenylbutanamide] | promoted wound healing | reduced 5-FU-induced mucositis | 
95 to 96 °C |  | CC(C)(C(=O)NO)C(O)Cc1ccccc1 (stereo not shown) [Compound 2, N,3-dihydroxy-2,2-dimethyl-4-phenylbutanamide] |  |  | 
166 to 167 °C | 4130 | CC(C)(C)OC(=O)NC(Cc1ccc(O)cn1)C(=O)Nc1ccc(CCCC(=O)NO)cc1 (stereo not shown) [Compound 4, tert-butyl-1-(4-(4-(hydroxyamino)-4-oxobutyl)phenylamino)-3-(5-hydroxypyridin-2-yl)-1-oxopropan-2-ylcarbamate] |  |  | 
> 300 °C |  | NC(Cc1ccc(OCc2ccccc2)cn1)C(=O)Nc1ccc(CCCC(=O)NO)cc1 (stereo not shown) [Compound 5, 4-(4-(2-amino-3-(5-(benzyloxy)pyridin-2-yl)propanamido)phenyl)-N-hydroxybutanamide] |  |  | 
230 °C (dec.) |  | NC(Cc1ccc(O)cn1)C(=O)Nc1ccc(CCCC(=O)NO)cc1 (stereo not shown) [Compound 6, 4-(4-(2-amino-3-(5-hydroxypyridin-2-yl)-propanamido)phenyl)-N-hydroxybutanamide] |  |  | 
106 to 108 °C | 1320 | CC(C)(C)OC(=O)NC(Cc1ccc(OCc2ccccc2)cn1)C(=O)NCc1ccc(C(=O)NO)cc1 (stereo not shown) [Compound 7, tert-butyl 3-(5-(benzyloxy)pyridin-2-yl)-1-(4-(hydroxycarbamoyl)benzylamino)-1-oxopropan-2-ylcarbamate] |  |  | 

SMILES | melting point | IC50 [1] [nM] | wound healing (IMR90 cells) | 5-FU-induced mucositis in wound areas (5-FU-induced mucositis) | COX-2 protein expression (COX-2)
CC(C)(C)OC(=O)N[C@H](Cc1ccc(OCc2ccccc2)cn1)C(=O)Nc1ccc(CCCC(=O)NO)cc1 [Compound 3, (R)-tert-butyl 3-(5-(benzyloxy)pyridin-2-yl)-1-(4-(4-(hydroxylamino)-4-oxobutyl)phenylamino)-1-oxopropan-2-ylcarbamate] |  | 398 | promoted wound healing | reduced 5-FU-induced mucositis | inhibited COX-2 protein expression
